pIC50: −log10 of the molar value. Several values for one entry are separate records, joined by “and”; a condition that tells them apart may be missing. Identical values can stand only once. Like-named read-outs stand apart in the source and are kept apart here.

Assay type in all cases: biochemical
Test [1] addresses T1, human GIVA cPLA2 (Homo sapiens, UniProt P47712).
T1 sequence (P47712 1-749): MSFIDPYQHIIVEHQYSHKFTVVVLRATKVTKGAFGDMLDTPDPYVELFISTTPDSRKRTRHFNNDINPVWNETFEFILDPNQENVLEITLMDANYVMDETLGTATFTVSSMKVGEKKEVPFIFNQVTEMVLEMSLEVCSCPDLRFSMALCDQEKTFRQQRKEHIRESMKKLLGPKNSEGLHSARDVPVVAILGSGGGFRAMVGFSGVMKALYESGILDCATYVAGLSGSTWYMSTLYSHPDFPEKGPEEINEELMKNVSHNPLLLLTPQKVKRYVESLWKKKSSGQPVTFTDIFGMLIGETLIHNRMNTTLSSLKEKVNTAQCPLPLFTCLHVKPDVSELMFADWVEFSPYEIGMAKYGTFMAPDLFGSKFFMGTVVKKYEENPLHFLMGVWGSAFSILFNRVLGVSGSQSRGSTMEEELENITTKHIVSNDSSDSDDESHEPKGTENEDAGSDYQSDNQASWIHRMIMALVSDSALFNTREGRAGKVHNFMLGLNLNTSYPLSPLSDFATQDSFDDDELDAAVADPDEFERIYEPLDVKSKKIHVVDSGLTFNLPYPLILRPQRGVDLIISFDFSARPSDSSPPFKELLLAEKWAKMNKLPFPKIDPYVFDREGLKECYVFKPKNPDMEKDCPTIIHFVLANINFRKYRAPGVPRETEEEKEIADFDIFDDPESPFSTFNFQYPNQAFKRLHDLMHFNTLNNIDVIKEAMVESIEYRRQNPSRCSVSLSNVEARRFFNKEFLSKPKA
Description: In vitro mixed micelle assay, GIVA cPLA2. To be noted: for inhibition of GIVA cPLA2 (in words): mixed micelle assay, comment on Table 6; for inhibition at 0.091 mole fraction: 0.091 mole fraction of inhibitor, read-out: GIVA cPLA2 % Inhib. As for the experimental part: (§1) At first, the percent of inhibition for each PLA2 enzyme at 0.091 mole fraction of each inhibitor was determined. […] The XI(50) is the mole fraction of the inhibitor in the total substrate interface required to inhibit the enzyme activity by 50%. […] (ii) GVI iPLA2 substrate mixed-micelles were composed of 400 μM Triton X-100, 98.3 μM PAPC, and 1.7 μM ^14C-labeled PAPC in buffer containing 100 mM HEPES, pH 7.5, 2 mM ATP, and 4 mM DTT; (iii) GV sPLA2 substrate mixed-micelles were composed of 400 μM Triton X-100, 98.3 μM PAPC, and 1.7 μM ^14C-labeled PAPC in buffer containing 50 mMTris, pH 8.0, and 5 mM […] CaCl2.

The target in test [2] is T1, human GIVA cPLA2. As to the kind of experiment: In vitro vesicle assay, cPLA2. As for the experimental part: The effect of the oxothiazoles synthesized on GIVA cPLA2 was measured in vesicles as previously described^51,52 with modifications.^53 The results are presented in Table 6 and are in full agreement with those using the micellar assay. […] From both assays, it is clear that the introduction of the ethyl ester group directly on the heterocyclic ring substantially increases the potency of inhibition. This group presumably develops additional interactions within the enzyme's active site. Comparing the results obtained in mixed micelles and in vesicles is obvious that Compound A stands out in this series of oxothiazoles
GIVA cPLA2 was measured as described^51,52 with modifications.^53 In short, recombinant human GIVA cPLA2 enzyme was pre-incubated with DMSO (1%) with or without inhibitor in assay buffer (80 sec at 37° C., 10 min at 25° C.). Lipid vesicles of L-α-1-palmitoyl-2-arachidonyl-[arachidonyl-1-^14C]-phosphatidylcholine (4.3 nmol) were dried under a steam of N2 (g). The dried lipid was re-suspended in 2 ml assay buffer and sonicated twice (7 min, output 3.5 and 50% duty cycles, on ice) in a Branson Sonifier 250 (Branson Ultrasonic Corporation, Danbury, Conn.). Sonicated lipid (0.2 μM) was added to the reaction and incubated for 1 h at 37° C. followed by addition of a chloroform/methanol stop buffer to terminate the enzymatic reaction. The reaction mixture was separated by centrifugation (5 min, 1640×g). The lower phase was transferred to a glass tube and dried under a steam of N2 (g), re-suspended in chloroform/methanol (9:1, by volume) and applied to a silica gel. Free [1-^14C]arachidonic acid and, L-α-1-palmitoyl-2-arachidonyl-[arachidonyl-1-^14C]-phosphatidylcholine were separated by thin layer chromatography and analyzed as previously described.^54

Another test addresses T2, human GV sPLA2 (Homo sapiens, UniProt P39877).
T2 sequence (P39877 21-138): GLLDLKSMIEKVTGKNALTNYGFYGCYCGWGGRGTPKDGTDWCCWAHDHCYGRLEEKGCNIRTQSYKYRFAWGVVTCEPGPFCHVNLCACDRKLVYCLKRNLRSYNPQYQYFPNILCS
Description: In vitro mixed micelle assay, GV sPLA2. To be noted: for inhibition at 0.091 mole fraction: mixed micelles, 0.091 mole fraction of inhibitor, Table 6, read-out: GV sPLA2 % Inhib. As for the experimental part: as §1

The mark [3] stands for this setting: % inhibition at 1 μM oxothiazole, read-out: cPLA2 vesicle assay % Inhib.
[4] abbreviates: inhibitors tested in 0-3 μM range, read-out: cPLA2 vesicle assay IC50 (μm).
Setting [5] is: mixed micelles, mole fraction of inhibitor for 50% inhibition, Table 6.
Setting [6] is: tested 0-5 μM, Tables 2 and 4, read-out: cPLA2 in vitro assay (0-5 μM) IC50.
[7] abbreviates: vesicles assay, read-out: IC50 on GIVA cPLA2 in vesicles assay.

`CCCCCCCCc1ccc(OCC(=O)c2nc(CC(=O)OCC)cs2)cc1` [Compound Y, Ethyl 2-(2-(2-(4-octylphenoxy)acetyl)thiazol-4-yl)acetate]: the “inhibition of GIVA cPLA2 (in words)” value against human GIVA cPLA2 [1] is “dramatic loss of the activity”. The inhibition at 0.091 mole fraction on human GIVA cPLA2 [1] (mixed micelles, Table 6) amounted to 64%; at human GV sPLA2, 50%. The inhibition at 1 µM on human GIVA cPLA2 [2] (setting [3]) was determined as 25%. Besides, the negative logarithm of the IC50 (pIC50) at human GIVA cPLA2 [2] (setting [4]) is less than 5.52.

For `CCCCCCCCc1ccc(OCC(=O)c2nc(C(=O)OC)cs2)cc1` [Compound A, Methyl 2-(2-(4-octylphenoxy)acetyl)thiazole-4-carboxylate], the “GIVA cPLA2 XI(50)” value at human GIVA cPLA2 [1] (Table 2, mole fraction of inhibitor in the total substrate interface for 50% inhibition) was 0.011 mole fraction; on human GIVA cPLA2 [1] (setting [5]) it was 0.011 mole fraction and 0.011 ± 0.005 mole fraction. In addition, the “GIVA cPLA2 % Inhibition” value at human GIVA cPLA2 [1] (Tables 2 and 4) is recorded as greater than 90%. Also, the inhibition at 0.091 mole fraction was greater than 90% at human GIVA cPLA2 [1] (mixed micelles, Table 6) and 41% on human GV sPLA2. In addition, the inhibition at 1 µM on human GIVA cPLA2 [2] (setting [3]) was found to be 74%. Besides, the negative logarithm of the IC50 (pIC50) is roughly 6.52 at human GIVA cPLA2 [2] (setting [6]) and 6.52 on human GIVA cPLA2 [2] (setting [7]). Besides, on human GV sPLA2 (Tables 2 and 4), the “GV sPLA2 % Inhibition” value amounted to 41.1%.

In the case of `O=C(COc1ccccc1)c1nccs1` [Compound D, 2-Phenoxy-1-(thiazol-2-yl)ethanone], at human GIVA cPLA2 [1], the “inhibition of GIVA cPLA2 (in words)” value is on record as “did not present any interesting inhibition”. The inhibition at 0.091 mole fraction was 40% on human GIVA cPLA2 [1] (mixed micelles, Table 6) and 0% on human GV sPLA2. The inhibition at 1 µM at human GIVA cPLA2 [2] (setting [3]) was found to be 26%. In addition, the values for the pIC50 at human GIVA cPLA2 [2] (setting [4]) and at human GIVA cPLA2 [2] (setting [6]) were less than 5.52 and less than 5.30, respectively.

As to `O=C(COc1ccc(-c2ccccc2)cc1)c1nccs1` [Compound B, 2-(Biphenyl-4-yloxy)-1-(thiazol-2-yl)ethanone], the “inhibition of GIVA cPLA2 (in words)” value against human GIVA cPLA2 [1] was “did not present any interesting inhibition”. Further, the inhibition at 0.091 mole fraction amounted to 80% at human GIVA cPLA2 [1] (mixed micelles, Table 6) and 41% on human GV sPLA2. The inhibition at 1 µM on human GIVA cPLA2 [2] (setting [3]) came to 26%; on human GIVA cPLA2 [2] (at 1 μM, printed in the IC50 column of Table 2, read-out: cPLA2 in vitro assay, % inh at 1 μM), 35%. In addition, on human GIVA cPLA2 [2] (setting [4]), the negative-log IC50 (pIC50) is less than 5.52.

Regarding `O=C(COc1ccc(F)cc1)c1nccs1` [Compound C, 2-(4-Fluorophenoxy)-1-(thiazol-2-yl)ethanone], the “inhibition of GIVA cPLA2 (in words)” value against human GIVA cPLA2 [1] is given as “did not present any interesting inhibition”. For the same molecule, the inhibition at 0.091 mole fraction on human GIVA cPLA2 [1] (mixed micelles, Table 6) amounted to 58%; at human GV sPLA2, 4%. In addition, at human GIVA cPLA2 [2] (setting [3]), the inhibition at 1 µM worked out at 7%. Further, the pIC50 at human GIVA cPLA2 [2] (setting [4]) is less than 5.52; on human GIVA cPLA2 [2] (setting [6]), less than 5.30.

In the case of `CCCCCCCCCCCCOCC(=O)c1nc(C(=O)OCC)cs1` [Compound W, Ethyl 2-(2-(dodecyloxy)acetyl)thiazole-4-carboxylate], the inhibition at 0.091 mole fraction on human GIVA cPLA2 [1] (mixed micelles, Table 6) worked out at 48%; on human GV sPLA2 it was 48%. The inhibition at 1 µM on human GIVA cPLA2 [2] (setting [3]) turned out to be 21%. Further, the pIC50 on human GIVA cPLA2 [2] (setting [4]) is less than 5.52.

With `CCCCCCCCc1ccc(OCC(=O)c2nccs2)cc1` [Compound T, 2-(4-Octylphenoxy)-1-(thiazol-2-yl)ethanone], the “inhibition of GIVA cPLA2 (in words)” value at human GIVA cPLA2 [1] is on record as “significant inhibitory activity”. Further, the inhibition at 0.091 mole fraction at human GIVA cPLA2 [1] (mixed micelles, Table 6) is greater than 90%; at human GV sPLA2, 46%. At human GIVA cPLA2 [1] (setting [5]), the “GIVA cPLA2 XI(50)” value came to 0.02 ± 0.007 mole fraction. For the same molecule, the inhibition at 1 µM at human GIVA cPLA2 [2] (setting [3]) is 43%. The pIC50 on human GIVA cPLA2 [2] (setting [7]) was 5.92.

As to `CCCCCCCCCCCCOCC(=O)c1nc(CC(=O)OCC)cs1` [Compound X, Ethyl 2-(2-(2-(dodecyloxy)acetyl)thiazol-4-yl)acetate], the “inhibition of GIVA cPLA2 (in words)” value on human GIVA cPLA2 [1] was “proved inactive”. Moreover, the inhibition at 0.091 mole fraction stood at 49% on human GIVA cPLA2 [1] (mixed micelles, Table 6) and 55% on human GV sPLA2. Further, at human GIVA cPLA2 [2] (setting [3]), the inhibition at 1 µM came out at 0%.

As a reminder, the pIC50 is −log10 of the IC50, conventionally taken in molar units.

Values taken from patent US11034666B2, “Anti-inflammatory and antitumor 2-oxothiazoles and 2-oxothiophenes compounds” (Avexxin AS, priority 2013, dated 2021).
